Series [1] can be described thus: MDR1 LLC-PK1 and BCRP MDCKII permeability assay: permeability coefficient (Papp). In kind it is in vitro ADME. An excerpt: (§1) Final organic concentration in the assay was 1%.
Series [2] addresses P-gp (MDR1) (Homo sapiens (Human), UniProt P08183). Description: MDR1 LLC-PK1 permeability assay: efflux ratio. The following applies: pig. Type of series: in vitro ADME.
Description: as §1

The target of series [3] is full-length FLAG-tagged B-Raf(V600E) (Homo sapiens (Human), UniProt P15056, V600E). Description: BRAF V600E enzyme assay (TR-FRET competitive displacement). In kind it is binding. The following applies: averaged IC50; TR-FRET tracer displacement, 60 min. The method, then:
A competitive displacement assay was configured for B-Raf that monitors the amount of a fluorescently-tagged “tracer” bound to B-Raf via TR-FRET from an anti-tag Eu-labeled antibody also bound to B-Raf. For full-length FLAG-tagged B-Raf(V600E), the assay mixtures consisted of 25 mM K^+HEPES, pH 7.4, 10 mM MgCl2, 0.01% Triton X-100, 1 mM DTT, 2% DMSO (from compound), 50 nM Tracer 1710 (ThermoFisher, PR9176A), 0.5 nM Eu anti-FLAG (M2)-cryptate Ab (Cisbio, 61FG2KLB) and 5 nM full-length, N-terminally FLAG-tagged B-Raf(V600E) (Origene Technologies, TP700031. Compounds were typically diluted in DMSO across an 11-point dosing range created using a 3-fold serial dilution protocol at a top dose of 10 μM. The assay was run in 384-well, polystyrene, low-volume, non-treated, white microtiter plates (Costar 4512) in a final volume of 12 μL. Low control wells included 1 μM of a potent B-Raf inhibitor as a control. The assays were incubated at ambient temperature (typically 22° C.) for 60 min and then read on a PerkinElmer EnVision microplate reader using standard TRF settings (λEx=320 nm, λEm=615 & 665 nm). The ratioed counts (665 nm/615 nm) were converted to percent of control (POC) using the following equation:
[formula] • where: • Xmax Average Uninhibited Controls • Xmin Average Background
A 4-parameter logistic model was the fit to the POC data for each compound. From that fit, the IC50 was estimated and is defined as the concentration of compound at which the best-fit curve crosses 50 POC.
Background: Time-resolved FRET reads energy transfer from a long-lived donor to a nearby acceptor.

In series [4] the test system is A375 cells. Kind of series: Cellular phospho-ERK inhibition assay in A375 cells. Type of series: cell-based. The following applies: Homo sapiens, A-375, A375 cells (head prints A357), 2 hours treatment, read-out: A357 cell IC50. The method, then:
A375 and H1755 cells were obtained from the American Type Culture Collection (ATCC, Rockville, MD). A375 cells were maintained in DMEM growth medium containing 10% FBS. H1755 cells were maintained in RPMI growth medium containing 10% FBS.
Cells were harvested according to standard protocols, counted and plated onto flat-bottom, 96-well tissue culture plates (Costar #3599) at 2.5×10^4 cells/well for A375 cells and 1.5×10^4 cells/well for H1755 cells in 100 μL/well of growth medium containing 10% FBS. After an overnight incubation at 37° C. with 5% CO2 cells were treated for 2 hours at 37° C., 5% CO2 with compounds prepared as a 9-point, 1:3.33 fold dilution series with final compound concentrations ranging from 66 pM-10 μM and a constant DMSO concentration of 0.25%. Control wells contained either 0.25% DMSO alone (uninhibited control) or 10 μM binimetinib (complete inhibition control). The levels of phosphorylated ERK are determined using an In Cell Western protocol: following compound incubation, growth medium was discarded, and cells were fixed with 0.4% formaldehyde in PBS for 20 minutes at room temperature. Cells were permeabilized with 100% methanol for 10 minutes at room temperature. Plates were washed with PBS containing 0.05% Tween-20 and blocked for 1 hour at room temperature with LI-COR Blocking Buffer (LI-COR Biosciences; Cat #927-40000). Plates were then incubated for 2 hours at room temperature with 50 μL of a 1:400 dilution of anti-phospho-ERK1/2 (Thr202/Tyr204) (Cell Signaling; Cat #9101) and a 1:1000 dilution of anti-GAPDH (Millipore; Cat #MAB374) in LI-COR blocking buffer containing 0.05% Tween-20. Plates were washed with PBS containing […] Tween-20 then incubated at room temperature for 1 hour with 50 μL of a 1:1000 dilution of anti-rabbit AlexaFluor 680 (Life Technologies; Cat #A21109) and a 1:1000 dilution of anti-mouse IRDye 800CW (LI-COR; Cat #926-32210) in LI-COR blocking buffer containing 0.05% Tween-20. Plates were analyzed by reading on an Odyssey CLx infrared scanner. For each well, the phospho-ERK signal was normalized to the GAPDH signal and converted to POC using the following equation:
[formula] • Where: • Xmax Average Uninhibited Controls • Xmin Average Complete Inhibition Controls IC50 values were then calculated using a 4-parameter fit in XLfit software and are provided in Table A1.

Series [5] has as its target BCRP (Homo sapiens (Human), UniProt Q9UNQ0). Kind of series: BCRP MDCKII permeability assay: efflux ratio. In kind it is in vitro ADME. The following applies: dog.
Description: BCRP transfected MDCKII cells were cultured and plated according to manufacturer's recommendations. Assay conditions included with and without the BCRP-specific inhibitor, KO143, at a concentration of 0.3 μM to ascertain the contribution of BCRP to the efflux value of the test compound.
Both positive and negative controls were used to assess functionality of P-gp or BCRP efflux in the assays. […] Final organic concentration in the assay was 1%. All dosing solutions contained 10 μM lucifer yellow to monitor LLC-PK1 or MDCKII cell monolayer integrity.
For the apical to basolateral determination (A to B), 75 μL of the test article in transport buffer were added to the apical side of the individual transwells and 250 μL of basolateral media, without compound or lucifer yellow, were added to each well. For the basolateral to apical determination (B to A), 250 μL of test article in transport buffer were added to each well and 75 μL transport buffer, without compound or lucifer yellow, were added to each transwell. All tests were performed in triplicate, and each compound was tested for both apical to basolateral and basolateral to apical transport. The plates were incubated for 2 hours on a Lab-Line Instruments Titer Orbital Shaker (VWR, West Chester, PA) at 50 rpm and 37° C. with 5% CO2. All culture plates were removed from the incubator and 50 μL of media were removed from the apical and basolateral portion of each well and added to 150 μL of 1 μM labetalol in 2:1 acetonitrile (acetonitrile): H2O, v/v.
These values were accepted when found to be below 2% for apical to basolateral and 5% basolateral to apical flux across the MDR1-transfected LLC-PK1 or BCRP-transfected MDCKII cell monolayers. The plates were sealed and the contents of each well analyzed by LC-MS/MS. The compound concentrations were determined from the ratio of the peak areas of the compound to the internal standard (labetalol) in comparison to the dosing solution.
The LC-MS/MS system was comprised of an HTS-PAL autosampler (Leap Technologies, Carrboro, NC), an HP1200 HPLC (Agilent, Palo Alto, CA), and a MDS Sciex 4000 Q Trap system (Applied Biosystems, Foster City, CA). […] The total run time, including re-equilibration, for a single injection was 1.2 minutes. Mass spectrometric detection of the analytes was accomplished using the ion spray positive mode.
An efflux ratio is calculated from the mean apical to basolateral (A-B) Papp data and basolateral to apical (B-A) Papp data using the following equation: Efflux ratio=Papp(B-A)/Papp(A-B)

Structures can show the parent of a compound that is named as a salt.

Sequence of P-gp (MDR1) (P08183 whole entry, species assumed): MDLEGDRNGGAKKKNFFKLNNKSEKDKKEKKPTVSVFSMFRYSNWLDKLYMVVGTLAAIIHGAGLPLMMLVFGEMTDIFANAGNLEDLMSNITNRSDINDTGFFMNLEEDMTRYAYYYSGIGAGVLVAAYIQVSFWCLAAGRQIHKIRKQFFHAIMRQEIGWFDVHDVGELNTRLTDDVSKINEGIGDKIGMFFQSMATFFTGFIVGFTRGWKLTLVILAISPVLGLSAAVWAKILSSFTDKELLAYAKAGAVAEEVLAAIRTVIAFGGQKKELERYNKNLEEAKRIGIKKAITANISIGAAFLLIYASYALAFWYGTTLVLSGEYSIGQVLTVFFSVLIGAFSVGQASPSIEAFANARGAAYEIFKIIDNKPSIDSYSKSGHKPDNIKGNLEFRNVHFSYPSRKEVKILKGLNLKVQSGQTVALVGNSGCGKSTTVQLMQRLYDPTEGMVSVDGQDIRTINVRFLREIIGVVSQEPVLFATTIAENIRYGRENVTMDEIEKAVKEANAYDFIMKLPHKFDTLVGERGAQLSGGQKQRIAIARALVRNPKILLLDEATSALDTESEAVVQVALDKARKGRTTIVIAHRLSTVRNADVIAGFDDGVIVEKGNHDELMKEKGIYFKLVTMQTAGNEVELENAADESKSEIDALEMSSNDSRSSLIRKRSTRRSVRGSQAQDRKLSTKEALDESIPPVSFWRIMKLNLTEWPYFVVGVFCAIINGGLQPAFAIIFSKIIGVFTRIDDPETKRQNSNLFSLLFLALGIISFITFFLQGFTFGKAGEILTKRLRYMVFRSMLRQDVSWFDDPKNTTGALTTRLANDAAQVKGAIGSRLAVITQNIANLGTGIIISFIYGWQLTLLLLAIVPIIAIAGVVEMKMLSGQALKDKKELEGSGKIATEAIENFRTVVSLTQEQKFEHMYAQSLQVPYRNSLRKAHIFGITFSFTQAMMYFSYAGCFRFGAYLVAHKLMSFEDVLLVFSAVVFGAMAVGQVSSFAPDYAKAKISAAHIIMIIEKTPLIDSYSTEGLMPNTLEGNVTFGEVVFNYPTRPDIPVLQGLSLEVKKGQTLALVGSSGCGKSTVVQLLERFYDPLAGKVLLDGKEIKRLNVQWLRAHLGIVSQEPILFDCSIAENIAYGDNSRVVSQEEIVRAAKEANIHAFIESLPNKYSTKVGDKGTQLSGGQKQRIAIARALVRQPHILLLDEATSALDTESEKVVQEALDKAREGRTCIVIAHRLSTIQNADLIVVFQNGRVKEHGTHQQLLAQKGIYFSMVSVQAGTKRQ
Sequence of full-length FLAG-tagged B-Raf(V600E) (P15056 whole entry V600E): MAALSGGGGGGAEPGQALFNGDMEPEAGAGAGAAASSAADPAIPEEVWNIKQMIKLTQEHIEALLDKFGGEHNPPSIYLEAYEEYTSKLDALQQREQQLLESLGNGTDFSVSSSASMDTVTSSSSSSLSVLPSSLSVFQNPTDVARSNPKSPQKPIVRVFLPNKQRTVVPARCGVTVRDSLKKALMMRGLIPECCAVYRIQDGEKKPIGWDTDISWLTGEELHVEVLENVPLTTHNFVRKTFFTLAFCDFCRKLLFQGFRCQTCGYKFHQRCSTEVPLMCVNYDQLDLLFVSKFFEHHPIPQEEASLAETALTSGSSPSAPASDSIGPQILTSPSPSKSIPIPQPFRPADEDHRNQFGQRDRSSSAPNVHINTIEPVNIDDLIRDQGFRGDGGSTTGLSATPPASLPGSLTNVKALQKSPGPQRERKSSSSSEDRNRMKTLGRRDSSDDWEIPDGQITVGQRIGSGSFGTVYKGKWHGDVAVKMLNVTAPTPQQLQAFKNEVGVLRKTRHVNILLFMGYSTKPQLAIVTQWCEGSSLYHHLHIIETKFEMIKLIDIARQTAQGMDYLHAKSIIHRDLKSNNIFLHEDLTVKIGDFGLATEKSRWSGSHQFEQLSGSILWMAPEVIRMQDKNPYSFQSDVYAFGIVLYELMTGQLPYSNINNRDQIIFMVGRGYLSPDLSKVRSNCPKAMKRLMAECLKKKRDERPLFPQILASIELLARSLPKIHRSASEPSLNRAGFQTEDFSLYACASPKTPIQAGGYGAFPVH
Sequence of BCRP (Q9UNQ0 whole entry): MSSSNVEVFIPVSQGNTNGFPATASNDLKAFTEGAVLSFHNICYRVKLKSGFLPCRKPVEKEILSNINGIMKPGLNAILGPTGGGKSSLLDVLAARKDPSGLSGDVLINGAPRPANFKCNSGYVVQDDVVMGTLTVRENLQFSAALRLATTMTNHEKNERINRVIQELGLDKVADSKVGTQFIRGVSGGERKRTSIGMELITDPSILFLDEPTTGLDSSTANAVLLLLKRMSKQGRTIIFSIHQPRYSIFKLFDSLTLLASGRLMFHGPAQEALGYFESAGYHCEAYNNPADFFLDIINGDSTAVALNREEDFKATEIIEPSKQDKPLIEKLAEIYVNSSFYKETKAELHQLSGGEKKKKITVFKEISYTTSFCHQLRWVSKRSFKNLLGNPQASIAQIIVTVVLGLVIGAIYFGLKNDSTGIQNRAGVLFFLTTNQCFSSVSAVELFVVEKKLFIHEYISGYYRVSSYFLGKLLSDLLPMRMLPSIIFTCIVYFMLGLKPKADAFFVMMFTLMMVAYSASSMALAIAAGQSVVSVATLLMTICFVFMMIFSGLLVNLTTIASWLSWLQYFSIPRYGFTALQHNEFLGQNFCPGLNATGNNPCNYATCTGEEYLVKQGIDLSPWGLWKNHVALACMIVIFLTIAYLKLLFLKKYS

For the molecule `CO[C@H]1CN(S(=O)(=O)Nc2ccc(F)c(Nc3ccc4ncn(C)c(=O)c4c3C)c2Cl)C[C@@H]1F` (relative stereo) [Example 78, (trans)-N-(2-chloro-3-((3,5-dimethyl-4-oxo-3,4-dihydroquinazolin-6-yl)amino)-4-fluorophenyl)-3-fluoro-4-methoxypyrrolidine-1-sulfonamide], the Papp at 2 h, 1 µM in series [1] amounted to 34 ×10⁻⁶ cm/s. Further, the figures for the efflux ratio at 2 h, 1 µM in series [2] and in series [5] were 1.5 and 1, respectively. In addition, the values for the IC50 in series [3] and in series [4] were 0.114 µM and 0.189 µM, respectively.
In series [1], `Cc1c(Nc2c(F)ccc(NS(=O)(=O)N3C[C@H](F)[C@@H](F)C3)c2Cl)ccc2ncn(C)c(=O)c12` (relative stereo) [Example 85, (trans)-N-(2-chloro-3-((3,5-dimethyl-4-oxo-3,4-dihydroquinazolin-6-yl)amino)-4-fluorophenyl)-3,4-difluoropyrrolidine-1-sulfonamide] had a Papp at 2 h, 1 µM of 26 ×10⁻⁶ cm/s. In addition, the results for the efflux ratio at 2 h, 1 µM in series [2] and in series [5] were 1.7 and 0.9, respectively. Moreover, the IC50 in series [3] came to 0.052 µM; in series [4], 0.178 µM.
Take `Cc1c(Nc2c(F)ccc(NS(=O)(=O)N3CCOCC3)c2Cl)ccc2ncn(C)c(=O)c12` [Example 79, N-(2-chloro-3-((3,5-dimethyl-4-oxo-3,4-dihydroquinazolin-6-yl)amino)-4-fluorophenyl)morpholine-4-sulfonamide]: the Papp at 2 h, 1 µM in series [1] is 28 ×10⁻⁶ cm/s. The efflux ratio at 2 h, 1 µM in series [2] was 1.3; in series [5], 1. The IC50 was 0.111 µM in series [3] and 0.138 µM in series [4].
In the case of `Cc1c(Nc2c(F)ccc(NS(=O)(=O)N3CCC4CC4C3)c2Cl)ccc2ncn(C)c(=O)c12` (centres unmarked) [Example 80], the IC50 in series [3] is 0.103 µM; in series [4], 0.311 µM. Moreover, in series [5], the efflux ratio at 2 h, 1 µM was determined as 0.6.
Regarding `Cc1c(Nc2c(F)ccc(NS(=O)(=O)N3CCC4(CC4)C3)c2Cl)ccc2ncn(C)c(=O)c12` [Example 82, N-(2-chloro-3-((3,5-dimethyl-4-oxo-3,4-dihydroquinazolin-6-yl)amino)-4-fluorophenyl)-5-azaspiro[2.4]heptane-5-sulfonamide trifluoroacetate], the Papp at 2 h, 1 µM in series [1] worked out at 13 ×10⁻⁶ cm/s. For the same molecule, the figures for the efflux ratio at 2 h, 1 µM in series [2] and in series [5] were 1.2 and 1, respectively. The IC50 came to 0.069 µM in series [3] and 0.193 µM in series [4].
As to `Cc1c(Nc2c(F)ccc(NS(=O)(=O)N3CCCCC3)c2Cl)ccc2ncn(C)c(=O)c12` [Example 84, N-(2-chloro-3-((3,5-dimethyl-4-oxo-3,4-dihydroquinazolin-6-yl)amino)-4-fluorophenyl)piperidine-1-sulfonamide], the Papp at 2 h, 1 µM in series [1] was 18 ×10⁻⁶ cm/s. The efflux ratio at 2 h, 1 µM in series [2] and in series [5] was 0.8 in each case. Also, the IC50 in series [3] was found to be 0.053 µM; in series [4], 0.133 µM.
On to `Cc1c(Nc2c(F)ccc(NS(=O)(=O)N3CC4CC4(C)C3)c2Cl)ccc2ncn(C)c(=O)c12` (centres unmarked) [Example 88], for which the Papp at 2 h, 1 µM in series [1] was determined as 25 ×10⁻⁶ cm/s. The efflux ratio at 2 h, 1 µM stood at 1.2 in series [2] and 0.6 in series [5]. Further, the IC50 was 0.027 µM in series [3] and 0.203 µM in series [4].
As to `Cc1c(Oc2c(F)ccc(NS(=O)(=O)N3CC4CC4C3)c2Cl)ccc2ncn(C)c(=O)c12` (centres unmarked) [Example 91], the Papp at 2 h, 1 µM in series [1] worked out at 17 ×10⁻⁶ cm/s. Further, the results for the efflux ratio at 2 h, 1 µM in series [2] and in series [5] were 1.5 and 0.8, respectively. Further, the values for the IC50 in series [3] and in series [4] were 0.009 µM and 0.123 µM, respectively.
In series [1], `Cc1c(Nc2c(F)c(F)cc(NS(=O)(=O)N(C)C)c2Cl)ccc2ncn(C)c(=O)c12` [Example 98, N-(2-chloro-3-((3,5-dimethyl-4-oxo-3,4-dihydroquinazolin-6-yl)amino)-4,5-difluorophenyl)-(N,N-dimethyl)-sulfamide] showed a Papp at 2 h, 1 µM of 31 ×10⁻⁶ cm/s. Further, the efflux ratio at 2 h, 1 µM in series [2] and in series [5] was 1.1 in each case. The values for the half-maximal inhibitory concentration (IC50) in series [3] and in series [4] were 0.02 µM and 0.049 µM, respectively.
Turning to `Cn1cnc2ccc(Nc3c(F)ccc(NS(=O)(=O)N4CC(OC(F)F)C4)c3Cl)c(Cl)c2c1=O` [Example 143, N-(2-chloro-3-((5-chloro-3-methyl-4-oxo-3,4-dihydroquinazolin-6-yl)amino)-4-fluorophenyl)-3-(difluoromethoxy)azetidine-1-sulfonamide], the Papp at 2 h, 1 µM in series [1] is 16 ×10⁻⁶ cm/s. The efflux ratio at 2 h, 1 µM in series [2] was 2.6; in series [5], 3.9. For the same molecule, the IC50 in series [4] amounted to 0.045 µM.
In series [1], `Cn1cnc2ccc(Nc3c(F)ccc(NS(=O)(=O)N4CC(OC(F)F)C4)c3Cl)c(F)c2c1=O` [Example 144, N-(2-chloro-4-fluoro-3-((5-fluoro-3-methyl-4-oxo-3,4-dihydroquinazolin-6-yl)amino)phenyl)-3-(difluoromethoxy)azetidine-1-sulfonamide] displayed a Papp at 2 h, 1 µM of 27 ×10⁻⁶ cm/s. Besides, the efflux ratio at 2 h, 1 µM in series [2] turned out to be 5.2. Also, the 50% inhibitory concentration (IC50) came out at 0.01 µM in series [3] and 0.033 µM in series [4].
In series [1], `Cc1c(Nc2c(F)ccc(NS(=O)(=O)N3CC(C#N)C3)c2Cl)ccc2ncn(C)c(=O)c12` [Example 146, N-(2-chloro-3-((3,5-dimethyl-4-oxo-3,4-dihydroquinazolin-6-yl)amino)-4-fluorophenyl)-3-cyanoazetidine-1-sulfonamide trifluoroacetate] showed a Papp at 2 h, 1 µM of 17 ×10⁻⁶ cm/s. The efflux ratio at 2 h, 1 µM in series [2] was determined as 6.9. Also, the IC50 came to 0.027 µM in series [3] and 0.031 µM in series [4].
As to `Cc1c(Nc2c(F)ccc(NS(=O)(=O)N3CC(C)C3)c2Cl)ccc2ncn(C)c(=O)c12` [Example 147, N-(2-chloro-3-((3,5-dimethyl-4-oxo-3,4-dihydroquinazolin-6-yl)amino)-4-fluorophenyl)-3-methylazetidine-1-sulfonamide trifluoroacetate], the apparent permeability (Papp) at 2 h, 1 µM in series [1] turned out to be 28 ×10⁻⁶ cm/s. Besides, the efflux ratio at 2 h, 1 µM in series [2] came out at 1. Moreover, the IC50 is 0.019 µM in series [3] and 0.067 µM in series [4].
`Cc1c(Nc2c(F)ccc(NS(=O)(=O)N3CC4(CCC4)C3)c2Cl)ccc2ncn(C)c(=O)c12` [Example 157, N-(2-chloro-3-((3,5-dimethyl-4-oxo-3,4-dihydroquinazolin-6-yl)amino)-4-fluorophenyl)-2-azaspiro[3.3]heptane-2-sulfonamide trifluoroacetate]: the Papp at 2 h, 1 µM in series [1] amounted to 23 ×10⁻⁶ cm/s. Moreover, the efflux ratio at 2 h, 1 µM in series [2] and in series [5] was 1.2 each time. In addition, the IC50 in series [4] came to 0.886 µM.
Consider `Cc1c(Nc2c(F)ccc(NS(=O)(=O)N3CC(COCF)C3)c2Cl)ccc2ncn(C)c(=O)c12` [Example 164, N-(2-chloro-3-((3,5-dimethyl-4-oxo-3,4-dihydroquinazolin-6-yl)amino)-4-fluorophenyl)-3-((fluoromethoxy)methyl)azetidine-1-sulfonamide trifluoroacetate], for which the IC50 worked out at 0.113 µM in series [3] and 1.41 µM in series [4].

The term Papp denotes the rate of passage across a membrane or cell layer, normalised by area and donor concentration. The low end stands for slow passage, the high end for fast passage. Usually efflux ratio stands for the permeability from basolateral to apical divided by that in the opposite direction, in the common usage. A word on the IC50: it is the concentration at which inhibition is half-maximal.

These data come from patent US12303509B2, “Compounds for the treatment of BRAF-associated diseases and disorders” (Pfizer Inc., priority 2020, dated 2025).
